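All cell lines were grown in 96-well plates and treated with compound for 48 hours. The concentration for 50% growth inhibition is given as GI50. TGI: concentration producing complete growth inhibition.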
Legend:
Test in all cases: DTP human tumour cell line panel, 48 h; in the data active = GI50 below about 0.43 µM; inactive = the rest
SNB-75 CNS = test system: SNB-75 CNS
MOLT-4 leukemia = test system: MOLT-4 leukemia
ACHN renal = test system: ACHN renal
HCT-116 colon = test system: HCT-116 colon
SF-268 CNS = test system: SF-268 CNS
SR leukemia = test system: SR leukemia
MALME-3M melanoma = test system: MALME-3M melanoma
COLO 205 colon = test system: COLO 205 colon
HT29 colon = test system: HT29 colon
NCI-H460 lung = test system: NCI-H460 lung
SF-295 CNS = test system: SF-295 CNS
NCI-H522 lung = test system: NCI-H522 lung
OVCAR-5 ovarian = test system: OVCAR-5 ovarian
UO-31 renal = test system: UO-31 renal
SN12C renal = test system: SN12C renal
NCI/ADR-RES ovarian = test system: NCI/ADR-RES ovarian
T-47D breast = test system: T-47D breast
UACC-257 melanoma = test system: UACC-257 melanoma
KM12 colon = test system: KM12 colon
A498 renal = test system: A498 renal
SNB-19 CNS = test system: SNB-19 CNS
IGROV1 ovarian = test system: IGROV1 ovarian
RPMI-8226 leukemia = test system: RPMI-8226 leukemia
PC-3 prostate = test system: PC-3 prostate
CAKI-1 renal = test system: CAKI-1 renal
NCI-H23 lung = test system: NCI-H23 lung
SK-MEL-28 melanoma = test system: SK-MEL-28 melanoma
OVCAR-4 ovarian = test system: OVCAR-4 ovarian
MDA-MB-435 = test system: MDA-MB-435
CCRF-CEM leukemia = test system: CCRF-CEM leukemia
SK-OV-3 ovarian = test system: SK-OV-3 ovarian
K-562 leukemia = test system: K-562 leukemia
TK-10 renal = test system: TK-10 renal
HCC-2998 colon = test system: HCC-2998 colon
U251 CNS = test system: U251 CNS
HL-60(TB) leukemia = test system: HL-60(TB) leukemia
SF-539 CNS = test system: SF-539 CNS
OVCAR-8 ovarian = test system: OVCAR-8 ovarian
OVCAR-3 ovarian = test system: OVCAR-3 ovarian
HOP-62 NSCLC = test system: HOP-62 NSCLC
MCF7 breast = test system: MCF7 breast
MDA-MB-231 breast = test system: MDA-MB-231 breast
UACC-62 melanoma = test system: UACC-62 melanoma
A549 NSCLC = test system: A549 NSCLC
786-0 renal = test system: 786-0 renal
BT-549 breast = test system: BT-549 breast
EKVX NSCLC = test system: EKVX NSCLC
HCT-15 colon = test system: HCT-15 colon
SK-MEL-5 melanoma = test system: SK-MEL-5 melanoma
LOX IMVI melanoma = test system: LOX IMVI melanoma
RXF 393 renal = test system: RXF 393 renal
DU-145 prostate = test system: DU-145 prostate
NCI-H226 lung = test system: NCI-H226 lung
SW-620 colon = test system: SW-620 colon
M14 melanoma = test system: M14 melanoma
HS 578T breast = test system: HS 578T breast
SK-MEL-2 melanoma = test system: SK-MEL-2 melanoma

CN(C)c1ccc(Nc2ncnc3ccccc23)cc1
inactive: GI50 (SNB-75 CNS) > 100 µM | GI50 (MOLT-4 leukemia) 18.8 µM | GI50 (ACHN renal) > 100 µM | GI50 (HCT-116 colon) > 100 µM | GI50 (SF-268 CNS) > 100 µM | GI50 (SR leukemia) 54.3 µM | GI50 (MALME-3M melanoma) > 100 µM | GI50 (COLO 205 colon) > 100 µM | GI50 (HT29 colon) > 100 µM | GI50 (NCI-H460 lung) > 100 µM | GI50 (SF-295 CNS) > 100 µM | GI50 (NCI-H522 lung) > 100 µM | GI50 (OVCAR-5 ovarian) > 100 µM | GI50 (UO-31 renal) > 100 µM | GI50 (SN12C renal) > 100 µM | GI50 (NCI/ADR-RES ovarian) > 100 µM | GI50 (T-47D breast) > 100 µM | GI50 (UACC-257 melanoma) > 100 µM | GI50 (KM12 colon) > 100 µM | GI50 (A498 renal) > 100 µM | GI50 (SNB-19 CNS) > 100 µM | GI50 (IGROV1 ovarian) > 100 µM | GI50 (RPMI-8226 leukemia) > 100 µM | GI50 (PC-3 prostate) > 100 µM | GI50 (CAKI-1 renal) > 100 µM | GI50 (NCI-H23 lung) > 100 µM | GI50 (SK-MEL-28 melanoma) > 100 µM | GI50 (OVCAR-4 ovarian) > 100 µM | GI50 (MDA-MB-435) > 100 µM | GI50 (CCRF-CEM leukemia) > 100 µM | GI50 (SK-OV-3 ovarian) > 100 µM | GI50 (K-562 leukemia) > 100 µM | GI50 (TK-10 renal) > 100 µM | GI50 (HCC-2998 colon) > 100 µM | GI50 (U251 CNS) > 100 µM | GI50 (HL-60(TB) leukemia) > 100 µM | GI50 (SF-539 CNS) > 100 µM | GI50 (OVCAR-8 ovarian) > 100 µM | GI50 (OVCAR-3 ovarian) > 100 µM | GI50 (HOP-62 NSCLC) > 100 µM | GI50 (MCF7 breast) > 100 µM | GI50 (MDA-MB-231 breast) > 100 µM | GI50 (UACC-62 melanoma) > 100 µM | GI50 (A549 NSCLC) > 100 µM | GI50 (786-0 renal) > 100 µM | GI50 (BT-549 breast) > 100 µM | GI50 (EKVX NSCLC) > 100 µM | GI50 (HCT-15 colon) > 100 µM | GI50 (SK-MEL-5 melanoma) > 100 µM | GI50 (LOX IMVI melanoma) > 100 µM | GI50 (RXF 393 renal) > 100 µM | GI50 (DU-145 prostate) > 100 µM | GI50 (NCI-H226 lung) > 100 µM | GI50 (SW-620 colon) > 100 µM | GI50 (M14 melanoma) > 100 µM | GI50 (HS 578T breast) > 100 µM
> 100 µM: TGI (SNB-75 CNS) | TGI (MOLT-4 leukemia) | TGI (ACHN renal) | TGI (HCT-116 colon) | TGI (SF-268 CNS) | TGI (SR leukemia) | TGI (MALME-3M melanoma) | TGI (COLO 205 colon) | TGI (HT29 colon) | TGI (NCI-H460 lung) | TGI (SF-295 CNS) | TGI (NCI-H522 lung) | TGI (OVCAR-5 ovarian) | TGI (UO-31 renal) | TGI (SN12C renal) | TGI (NCI/ADR-RES ovarian) | TGI (T-47D breast) | TGI (UACC-257 melanoma) | TGI (KM12 colon) | TGI (A498 renal) | TGI (SNB-19 CNS) | TGI (IGROV1 ovarian) | TGI (RPMI-8226 leukemia) | TGI (PC-3 prostate) | TGI (CAKI-1 renal) | TGI (NCI-H23 lung) | TGI (SK-MEL-28 melanoma) | TGI (OVCAR-4 ovarian) | TGI (MDA-MB-435) | TGI (CCRF-CEM leukemia) | TGI (SK-OV-3 ovarian) | TGI (K-562 leukemia) | TGI (TK-10 renal) | TGI (HCC-2998 colon) | TGI (U251 CNS) | TGI (HL-60(TB) leukemia) | TGI (SF-539 CNS) | TGI (OVCAR-8 ovarian) | TGI (OVCAR-3 ovarian) | TGI (HOP-62 NSCLC) | TGI (MCF7 breast) | TGI (MDA-MB-231 breast) | TGI (UACC-62 melanoma) | TGI (A549 NSCLC) | TGI (786-0 renal) | TGI (BT-549 breast) | TGI (EKVX NSCLC) | TGI (HCT-15 colon) | TGI (SK-MEL-5 melanoma) | TGI (LOX IMVI melanoma) | TGI (RXF 393 renal) | TGI (DU-145 prostate) | TGI (NCI-H226 lung) | TGI (SW-620 colon) | TGI (M14 melanoma) | TGI (HS 578T breast)

COC1CCN(N(C)C)O1 (configuration not stated)
> 100 µM: TGI (SNB-75 CNS) | TGI (MOLT-4 leukemia) | TGI (ACHN renal) | TGI (HCT-116 colon) | TGI (SF-268 CNS) | TGI (SR leukemia) | TGI (MALME-3M melanoma) | TGI (COLO 205 colon) | TGI (HT29 colon) | TGI (NCI-H460 lung) | TGI (SF-295 CNS) | TGI (NCI-H522 lung) | TGI (OVCAR-5 ovarian) | TGI (UO-31 renal) | TGI (SN12C renal) | TGI (NCI/ADR-RES ovarian) | TGI (T-47D breast) | TGI (UACC-257 melanoma) | TGI (KM12 colon) | TGI (A498 renal) | TGI (SNB-19 CNS) | TGI (IGROV1 ovarian) | TGI (RPMI-8226 leukemia) | TGI (PC-3 prostate) | TGI (CAKI-1 renal) | TGI (NCI-H23 lung) | TGI (SK-MEL-28 melanoma) | TGI (OVCAR-4 ovarian) | TGI (MDA-MB-435) | TGI (CCRF-CEM leukemia) | TGI (K-562 leukemia) | TGI (TK-10 renal) | TGI (HCC-2998 colon) | TGI (U251 CNS) | TGI (HL-60(TB) leukemia) | TGI (OVCAR-8 ovarian) | TGI (OVCAR-3 ovarian) | TGI (HOP-62 NSCLC) | TGI (SK-MEL-2 melanoma) | TGI (MCF7 breast) | TGI (MDA-MB-231 breast) | TGI (UACC-62 melanoma) | TGI (A549 NSCLC) | TGI (786-0 renal) | TGI (BT-549 breast) | TGI (EKVX NSCLC) | TGI (HCT-15 colon) | TGI (SK-MEL-5 melanoma) | TGI (LOX IMVI melanoma) | TGI (RXF 393 renal) | TGI (DU-145 prostate) | TGI (NCI-H226 lung) | TGI (SW-620 colon) | TGI (M14 melanoma) | TGI (HS 578T breast)

— PubChem BioAssay (NCI)
